Laboratory results as given in US4524066A, “Process for the preparation of injectable chondroitin polysulfate” (Luitpold-Werk Chemisch-pharmazeutische Fabrik, priority 1981, dated 1985).

Legend:
[1] = test system: NMRI mice; assay: Acute toxicity, NMRI mice, i.v.; format: in vivo
[2] = test system: Wistar rats; assay: Acute toxicity, Wistar rats, i.v.; format: in vivo
[3] = test system: Cats; assay: Acute toxicity, cats, i.v.; format: in vivo
[4] = test system: Dogs; assay: Acute toxicity, dogs, i.v.; format: in vivo
[5] = test system: humans

In the case of chondroitin polysulfate, the LD50/7d [1] is reported as > 3,500 mg/kg, the LD50/7d [2] is reported as > 3,000 mg/kg and the LD50/7d [3] is reported as > 1,000 mg/kg. For the same substance, the LD50/7d [4] was > 1,000 mg/kg, the “therapeutic benefit of daily doses” value ([5]; daily doses of up to 500 mg) was “therapeutically advantageous” and the “therapeutic action in humans” value ([5]; single dosages 20-250 mg, in particular 30-150 mg, per individual in 0.2-2.0 ml) was “have a therapeutic action in humans”.
